According to US20250163006A1, “New Coolants, and Preparations Containing Same” (Symrise AG, priority 2022, published 2025):
Read-outs that look alike come from different tables or passages of the source.

How the values were obtained:
[1] = target: T1, human TRPM8 receptor (Homo sapiens, UniProt Q7Z2W7); experiment: Assay on TRPM8 modulators: Ca2+-sensitive dye (Fluo-4) fluorescence in HEK293-TRPM8 test cells; type: cell-based; parameters: relative TRPM8 activation: concentration or dose not given beside the values; details: for EC50: HEK293-TRPM8 cells; for relative TRPM8 activation: HEK293 cells recombinantly expressing human TRPM8
T1 construct: expressed in transfected cells; host or cells: HEK293, stably transfected, tetracycline-inducible expression
T1 sequence (Q7Z2W7 whole entry): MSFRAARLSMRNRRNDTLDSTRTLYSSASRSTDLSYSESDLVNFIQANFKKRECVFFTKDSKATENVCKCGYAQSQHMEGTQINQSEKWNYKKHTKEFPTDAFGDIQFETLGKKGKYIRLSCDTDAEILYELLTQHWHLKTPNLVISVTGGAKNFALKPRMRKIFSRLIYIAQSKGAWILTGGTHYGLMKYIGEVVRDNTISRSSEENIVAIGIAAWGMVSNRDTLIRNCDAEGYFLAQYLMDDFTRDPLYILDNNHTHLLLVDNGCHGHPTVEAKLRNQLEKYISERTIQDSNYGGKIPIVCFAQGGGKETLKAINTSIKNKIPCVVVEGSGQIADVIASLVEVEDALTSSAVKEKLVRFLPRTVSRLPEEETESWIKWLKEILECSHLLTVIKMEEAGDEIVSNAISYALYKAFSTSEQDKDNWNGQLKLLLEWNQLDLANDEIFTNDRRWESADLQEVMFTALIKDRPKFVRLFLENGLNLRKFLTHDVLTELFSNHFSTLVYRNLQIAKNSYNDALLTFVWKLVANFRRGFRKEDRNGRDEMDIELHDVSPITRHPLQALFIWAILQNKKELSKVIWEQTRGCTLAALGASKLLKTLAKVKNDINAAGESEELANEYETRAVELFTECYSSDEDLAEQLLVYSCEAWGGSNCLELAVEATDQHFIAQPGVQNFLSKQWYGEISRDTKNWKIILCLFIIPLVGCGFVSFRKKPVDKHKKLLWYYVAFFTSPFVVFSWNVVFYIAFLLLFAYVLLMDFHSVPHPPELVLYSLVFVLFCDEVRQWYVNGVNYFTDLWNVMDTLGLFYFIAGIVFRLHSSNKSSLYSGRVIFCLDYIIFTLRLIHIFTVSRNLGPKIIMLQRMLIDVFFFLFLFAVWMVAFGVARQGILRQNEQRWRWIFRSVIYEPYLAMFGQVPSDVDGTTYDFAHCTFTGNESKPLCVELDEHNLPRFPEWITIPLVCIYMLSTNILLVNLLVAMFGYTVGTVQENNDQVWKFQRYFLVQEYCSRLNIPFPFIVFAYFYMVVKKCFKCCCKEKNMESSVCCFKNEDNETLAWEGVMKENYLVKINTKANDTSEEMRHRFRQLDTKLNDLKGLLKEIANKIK
Outline: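 HEK293 cells stably carrying tetracycline-inducible human TRPM8 (1 µg/ml tetracycline), loaded next day with Fluo-4 (30 min 37 °C, 30 min RT). Compounds tested in triplicate at 0.1–200 µM (≤2% DMSO) and fluorescence read at 485/520 nm. EC50 from 4- or 5-parameter logistic fits of 6–10 concentrations.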

[2] = Sensory tasting of cooling intensity by trained panelists, WS-3 as reference; type: in vivo, human; details: 5 ppm in 5% sugar solution, rated after one minute, scale 1 (very weak) to 9 (very strong); for Sensory evaluation: cooling intensity; for cooling intensity (sensory evaluation, score): tasted 40 seconds, n=10 to 11
Experimental: In order to quantify the cooling effect, comparative tests are carried out using menthane-3-carboxylic acid-N-ethylamide as a reference. For these comparative tests, the skilled person replaces the compound or compounds to be used according to the invention with menthane-3-carboxylic acid-N-ethylamide (also referred to as WS-3). Then the intensities of the cooling effects of the respective compounds or active ingredients are sensory evaluated by trained panelists (n=10 to 11) as described below and compared with each other.
The cooling intensity was tested as follows: Test solutions with 5 ppm of the compounds according to the invention were each tasted in a 5% sugar solution as well as a corresponding solution with 30 ppm of the reference substance WS-3. […] The panelists tasted the corresponding test solutions for exactly 40 seconds, rinsing the entire mouth with the corresponding test solution and then spitting out the sample or reference solution. Following the tasting, the test subjects rated the respective cooling intensity after one minute according to a scale of 1 (very weak) to 9 (very strong).

[3] = TRPM8 activation, 6 to 10 concentrations, logistic curve fitting, read-out: EC50 value

| Structure (SMILES) | EC50 ([1]; Table 6, read-out: TRPM8 EC50) | EC50 ([1]; Table 8, read-out: TRPM8 EC50) | Sensory evaluation ([2]; Table 6) | Sensory evaluation ([2]; Table 10) | cooling intensity (sensory evaluation, score) [2] | Sensory evaluation ([2]; Table 5) | Sensory evaluation ([2]; Table 9) | further results |
| --- | --- | --- | --- | --- | --- | --- | --- | --- |
| CNC(=O)[C@H]1C[C@H]1c1nc(-c2ccccc2)c(-c2ccccc2)o1 (racemic) [Compound A-04, rac-(1S,2R)-2-(4,5-diphenyloxazol-2-yl)-N-methyl-cyclopropane-carboxamides] | 0.6 µM | 0.6 µM | 0.5 | 0.5 | – | – | – | EC50 [1, 3]: ≤ 1 µM |
| CNC(=O)[C@H]1C[C@@H]1c1nc(-c2ccccc2)c(-c2ccccc2)o1 (racemic) [Compound A-39, rac-(1S,2S)-2-(4,5-diphenyloxazol-2-yl)-N-methyl-cyclopropane-carboxamides] | – | – | 0.7 | – | – | – | – | relative TRPM8 activation [1]: 5% |
| CNC(=O)C(C)Sc1nc(-c2ccccc2)c(-c2ccccc2)o1 (stereo not shown) [Compound A-02, 2-(4,5-diphenyloxazol-2-yl)sulfanyl-N-methyl-propanamide] | 0.01 µM | 0.01 µM | 5.4 | 5.4 | 5.4 | – | – | – |
| CNC(=O)C(C)Sc1nc(C)c(-c2ccccc2)o1 (stereo not shown) [Compound A-05, N-methyl-2-(4-methyl-5-phenyl-oxazol-2-yl)sulfanyl-propanamide] | 2.31 µM | 2.31 µM | 1.1 | 1.1 | – | – | – | – |
| CCNC(=O)CCc1nc(-c2ccccc2)c(-c2ccccc2)o1 [Compound A-07, 3-(4,5-diphenyloxazol-2-yl)-N-ethyl-propanamide] | 0.15 µM | 0.15 µM | 2.67 | 2.67 | – | – | – | EC50 [1, 3]: ≤ 1 µM |
| CCC(Sc1nc(-c2ccccc2)c(-c2ccccc2)o1)C(=O)NC (stereo not shown) [Compound A-09, 2-(4,5-diphenyloxazol-2-yl)sulfanyl-N-methyl-butanamide] | 1.54 µM | 1.54 µM | 4.66 | 4.66 | 4.66 | – | – | – |
| CC(Sc1nc(-c2ccccc2)c(-c2ccccc2)o1)C(=O)NC1CC1 (stereo not shown) [Compound A-10, N-cyclopropyl-2-(4,5-diphenyloxazol-2-yl) sulfanyl-propanamide] | 2.13 µM | 2.13 µM | 5.38 | 5.38 | 5.38 | – | – | – |
| CCCNC(=O)C(C)Sc1nc(-c2ccccc2)c(-c2ccccc2)o1 (stereo not shown) [Compound A-12, 2-(4,5-diphenyloxazol-2-yl)sulfanyl-N-propyl-propanamide] | 5.09 µM | 5.09 µM | 1.26 | 1.26 | – | – | – | – |
| CNC(=O)CCc1nc(-c2ccccc2)c(-c2ccccc2)o1 [Compound A-16, 3-(4,5-diphenyloxazol-2-yl)-N-methyl-propanamide] | 4.27 µM | 4.27 µM | 2.3 | 2.3 | – | – | – | – |
| O=C(CCc1nc(-c2ccccc2)c(-c2ccccc2)o1)NC1CC1 [Compound A-18, N-cyclopropyl-3-(4,5-diphenyloxazol-2-yl)propanamide] | – | – | 0.71 | – | – | – | – | relative TRPM8 activation [1]: 80% |
| CC(Sc1nc(-c2ccccc2)c(-c2ccccc2)o1)C(N)=O (stereo not shown) [Compound A-20, 2-(4,5-diphenyloxazol-2-yl)sulfanyl-propanamide] | – | – | 0.81 | – | – | – | – | relative TRPM8 activation [1]: 73% |
| O=C(CCc1nc(-c2ccccc2)c(-c2ccccc2)o1)NC1CC1 [Compound A-22, N-cyclopropyl-3-(4,5-diphenyloxazol-2-yl)propanamide] | – | – | 0.8 | – | – | – | – | relative TRPM8 activation [1]: 69% |
| CCSc1nc(-c2ccccc2)c(-c2ccccc2)o1 [Compound A-55, 2-ethylsulfanyl-4,5-diphenyl-oxazole] | – | – | 0.59 | – | – | – | – | relative TRPM8 activation [1]: 1% |
| CC(Sc1nnc(-c2ccccc2)c(-c2ccccc2)n1)C(=O)NC1CC1 (stereo not shown) [Compound B-01, N-Cyclopropyl-2-[(5,6-diphenyl-1,2,4-triazin-3-yl)sulfanyl] propanamide] | – | – | – | – | 4.2 | 4.2 | 4.2 | EC50 [1, 3]: ≤ 1 µM; EC50 ([1]; Table 5, read-out: TRPM8 EC50): 0.05 µM; EC50 ([1]; Table 7, read-out: TRPM8 EC50): 0.05 µM |
| CNC(=O)C(C)Sc1cnc(-c2ccccc2)c(-c2ccccc2)n1 (stereo not shown) [Compound B-02, 2-(5,6-diphenylpyrazin-2-yl)sulfanyl-N-methyl-propanamide] | – | – | – | – | 4.1 | 4.1 | 4.1 | EC50 [1, 3]: ≤ 1 µM; EC50 ([1]; Table 5, read-out: TRPM8 EC50): 0.08 µM; EC50 ([1]; Table 7, read-out: TRPM8 EC50): 0.08 µM |
| O=C(CSc1nnc(-c2ccccc2)c(-c2ccccc2)n1)N1CCC1 [Compound B-06, 1-(azetidin-1-yl)-2-[(5,6-diphenyl-1,2,4-triazin-3-yl)sulfanyl]ethanone] | – | – | – | – | – | 3.0 | 3.0 | EC50 [1, 3]: ≤ 1 µM; EC50 ([1]; Table 5, read-out: TRPM8 EC50): 0.28 µM; EC50 ([1]; Table 7, read-out: TRPM8 EC50): 0.28 µM |
| CNC(=O)C(C)Sc1nnc2c3ccccc3c3ccccc3c2n1 (stereo not shown) [Compound B-07, N-methyl-2-phenanthro[9,10-e][1,2,4]triazine-3-ylsulfanyl-propanamide] | – | – | – | – | – | 0.75 | 0.75 | EC50 ([1]; EC50 value, TRPM8 activation, 6 to 10 concentrations, logistic curve fitting): ≤ 1 µM; EC50 ([1]; TRPM8 EC50, Table 5): 0.92 µM; EC50 ([1]; TRPM8 EC50, Table 7): 0.92 µM |
| CNC(=O)C(C)Sc1nnc(-c2ccccc2)c(-c2ccccc2)n1 (stereo not shown) [Compound B-11, 2-[(5,6-diphenyl-1,2,4-triazin-3-yl)sulfanyl]-N-methyl-propanamide] | – | – | – | – | 5.3 | 5.3 | 5.3 | EC50 ([1]; Table 5, read-out: TRPM8 EC50): 1.43 µM; EC50 ([1]; Table 7, read-out: TRPM8 EC50): 1.43 µM |
| O=C(CSc1nnc(-c2ccccc2)c(-c2ccccc2)n1)NC1CC1 [Compound B-19, N-cyclopropyl-2-[(5,6-diphenyl-1,2,4-triazin-3-yl)sulfanyl]acetamide] | – | – | – | – | – | 1.9 | 1.9 | – |
